Measured values published in patent EP1683515A2, “Bismuth-containing compounds in topical dosage forms” (Josman Laboratories, Inc., priority 1995, dated 1997).

Assays:
[1] = test system: rat mesentery culture; test: In vitro mesentery culture model, wound closure; assay type: cell-based; settings: for concentrations of growth factors EGF and FGF: 10 mcg/mL to 1,000 mcg/mL in medium with 2% fetal calf serum; for wound closure rate: 10 mcg/mL to 1,000 mcg/mL, 24-hour, 48-hour and 72-hour, compared to the placebo
Source text: This tissue culture model is useful for gaining insights into growth factor interactions and wound healing.

[2] = Diabetic mouse wound healing model; assay type: in vivo; settings: 10 mcg/mL to 1,000 mcg/mL; compared to placebo treated wound
Description: Further, wound healing potential of the above bismuth compounds is evaluated using a diabetic mouse wound healing model (Matuszewska et al., Pharmaceutical Research 11(1):65-71 (1994), incorporated herein by reference).

[3] = Freeze-injured skin graft model; assay type: in vivo; settings: 10 to 1000 mcg/mL; compared to placebo
[4] = test system: Campylobacter rectus; test: In vitro MIC against halitosis bacteria; assay type: cell-based
[5] = test system: Helicobacter pylori; test: In vitro MIC against halitosis bacteria; assay type: cell-based
[6] = test system: Treponema denticola; test: In vitro MIC against halitosis bacteria; assay type: cell-based
[7] = test system: H. Pylori; settings: as a single agent; cited from earlier work
[8] = test system: H. Pylori; settings: against H. Pylori; cited from earlier work
[9] = of the 13 adverse reaction forms, 1978 to 1986; cited from earlier work
[10] = four hour exposure; 0.5% in artificial saliva; mild agitation
Source text: Artificial saliva was used (Table 9). Table 9 THECOMPOSITION OF ARTIFICIAL SALIVA
Table 10 DENTURE MATERIALS

Molecule	concentrations of growth factors EGF and FGF [1]	wound closure rate [1]	wound healing [2]	wound healing in cryoinjured grafts [3]	MIC [4] [mg/L]	MIC [5] [mg/L]	MIC [6] [mg/L]	eradication rate for H. Pylori [7] [%]	MIC range [8] [mg/L]	minimum inhibitory concentration (MIC) [8] [mg/L]	adverse reactions ascribed to CBS [9]	staining, discoloration, or changes in texture of natural tooth and other denture materials [10]
Bismuth Ascorbyl Sulfate	Significantly higher	significantly faster wound closure rate and complete closure	heal faster	stimulates wound healing in cryoinjured grafts in a dose-related fashion	256	8	16					
Cc1ncc([N+](=O)[O-])n1CCO [metronidazole]								5				
colloidal bismuth subcitrate [CBS]	Significantly higher	significantly faster wound closure rate and complete closure	heal faster	stimulates wound healing in cryoinjured grafts in a dose-related fashion	256	2	32		4 to 32	8	Five	did not cause any staining, discoloration, or changes in texture
Bismuth Sucrose Sulfate					> 256	16	32					
